Experimental data published in ChEMBL document CHEMBL1124833, “Topically active carbonic anhydrase inhibitors. 3. Benzofuran- and indole-2-sulfonamides” (J Med Chem, 1990).
≈ marks a conversion by molar mass, not a printed value.

Legend:
[1] = Solubility; format: physicochemical; details: read-out: S
[2] = target: Carbonic anhydrase 2 (Homo sapiens, UniProt P00918)
Description: In vitro inhibition of human carbonic anhydrase II (0.1 nM).

[3] = tested on: Oryctolagus cuniculus; experiment: In vivo intraocular pressure reduction was determined in rabbits after effective topical dose (duration expressed as number of time points, P<=0.05); format: functional, Eye
[4] = Extent of reaction with 5 equiv of reduced glutathione (GSH) between 16 and 22 hours at pH 7.4 and 37 degree C
[5] = tested on: Oryctolagus cuniculus; experiment: METD(minimum effective topical dose of the compound) for ocular hypotensive activity in alpha-CT-rabbits; format: functional, Eye
[6] = Extent of reaction with 20 equiv of reduced glutathione (GSH) in 20 hours at pH 7.4 and 37 degree C
[7] = species on record: Cavia porcellus; experiment: Number of animals showing dermal sensitization/ number of animals tested in Magnusson-Kligman assay; 15/40; format: functional
[8] = species on record: Cavia porcellus; experiment: Number of animals showing dermal sensitization/ number of animals tested in Magnusson-Kligman assay.; format: functional
[9] = species on record: Cavia porcellus; experiment: Number of animals showing dermal sensitization/ number of animals tested in Magnusson-Kligman assay; 8/19; format: functional

| solubility [1] [µg/mL] | IC50 [2] [nM] | GSH [4] [%] | GSH [6] [%] | Compound | Max IOP reduction [3] [mmHg] | METD [5] [%] | No. of animals [7] | No. of animals [8] | No. of animals [9] |
| --- | --- | --- | --- | --- | --- | --- | --- | --- | --- |
| 220 (≈ 865 µM) | 11 | – | – | CC(=O)Oc1ccc2[nH]c(S(N)(=O)=O)cc2c1 | – | – | – | – | – |
| – | 32 | – | – | CC(=O)Oc1ccc2cc(S(N)(=O)=O)[nH]c2c1 | – | – | – | – | – |
| 190 (≈ 744 µM) | 6.5 | – | – | CC(=O)Oc1ccc2oc(S(N)(=O)=O)cc2c1 | -5.7 | – | – | – | – |
| – | > 10000 | – | – | COc1ccc2cc(S(N)(=O)=O)n(S(=O)(=O)c3ccccc3)c2c1 | – | – | – | – | – |
| – | 3 | 3.4 | – | CC(C)(C)C(=O)Oc1ccc2oc(S(N)(=O)=O)cc2c1 | – | – | – | – | – |
| – | 5.5 | – | – | CC(=O)Oc1ccc2cc(S(N)(=O)=O)oc2c1 | -8.8 | 0.5 | – | – | – |
| 80 (≈ 377 µM) | 25 | 11 | 17 | Nc1ccc2cc(S(N)(=O)=O)oc2c1 | – | – | – | – | – |
| 480 (≈ 2430 µM) | 8 | 0 | 10 | NS(=O)(=O)c1cc2ccccc2o1 | – | – | – | – | – |
| 2100 (≈ 9850 µM) | 6.5 | 4 | 9 | NS(=O)(=O)c1cc2cc(O)ccc2o1 | -6 | 0.1 | 15 | – | – |
| – | 15 | – | – | COc1ccc2cc(S(N)(=O)=O)oc2c1 | – | – | – | – | – |
| – | – | – | – | CC(C)(C)C(=O)Oc1ccc2cc(S(N)(=O)=O)oc2c1 | -5.3 | 0.5 | – | – | – |
| 540 (≈ 2380 µM) | 5.1 | – | 10 | COc1ccc2oc(S(N)(=O)=O)cc2c1 | – | – | – | – | – |
| 4800 (≈ 22600 µM) | 30 | 2.5 | 17 | NS(=O)(=O)c1cc2ccc(O)cc2[nH]1 | -5 | 0.5 | – | – | – |
| 850 (≈ 4330 µM) | 45 | 0 | – | NS(=O)(=O)c1cc2ccccc2[nH]1 | – | – | – | – | – |
| 150 (≈ 663 µM) | 16 | – | – | COc1ccc2[nH]c(S(N)(=O)=O)cc2c1 | – | – | – | – | – |
| 50 (≈ 208 µM) | 25 | – | – | NS(=O)(=O)c1cc2cc3c(cc2[nH]1)OCO3 | – | – | – | – | – |
| 430 (≈ 1880 µM) | – | 0 | 2.9 | NS(=O)(=O)c1cc2ccc(O)cc2s1 | -5.5 | 0.05 | – | 0 | – |
| 40 (≈ 166 µM) | 110 | – | 37 | COc1ccc2cc(S(N)(=O)=O)n(C)c2c1 | – | – | – | – | – |
| 2800 (≈ 13100 µM) | 11 | 4.9 | 23 | NS(=O)(=O)c1cc2ccc(O)cc2o1 | -5.2 | 0.5 | – | – | 8 |
| 520 (≈ 2300 µM) | 60 | – | – | COc1ccc2cc(S(N)(=O)=O)[nH]c2c1 | – | – | – | – | – |
| 280 (≈ 1320 µM) | 9 | 11 | – | Nc1ccc2oc(S(N)(=O)=O)cc2c1 | -6 | 0.5 | – | – | – |
| 1900 (≈ 8950 µM) | 22 | 0.7 | 13 | NS(=O)(=O)c1cc2cc(O)ccc2[nH]1 | -7.5 | 0.1 | – | 19 | – |
| – | 210 | – | 47 | Cc1c(S(N)(=O)=O)oc2cc(O)ccc12 | – | – | – | – | – |
| – | – | – | – | CC(=O)Oc1ccc2cc(S(N)(=O)=O)sc2c1 | -5.3 | 0.1 | – | – | – |
